Data reported in article PMC3835060 (2013).

Tests used:
[1] = test system: HTS (human telomere sequence) d[AG3(TTAG3)3] (DNA, G4) AGGGTTAGGGTTAGGGTTAGGG; assay: NMR titration (chemical shifts, intermolecular NOEs); conditions: 50 mM NaCl; pH 7, 283 K; binds at both loop ends
[2] = test system: HTS (human telomere sequence) d[AG3(TTAG3)3] (DNA, G4) AGGGTTAGGGTTAGGGTTAGGG; assay: luminescence titration; conditions: 200 mM KCl, 10 mM potassium phosphate, 1 mM K2EDTA, pH 7.0, 298 K, error ±20%
[3] = test system: HTS (human telomere sequence) d[AG3(TTAG3)3] (DNA, G4) AGGGTTAGGGTTAGGGTTAGGG; assay: NMR titration (chemical shifts, line broadening); conditions: 50 mM NaCl, pH 7, 298 K
[4] = 7 μM complex, one-set-of-sites fit

[Ru+2].[Ru+2].c1ccc(-c2ccccn2)nc1.c1ccc(-c2ccccn2)nc1.c1ccc(-c2ccccn2)nc1.c1ccc(-c2ccccn2)nc1.c1cnc2c(c1)c1nc3c4cccnc4c4ncccc4c3nc1c1cccnc12
binding [1]: yes

[Ru+2].[Ru+2].c1cnc2c(c1)c1nc3c4cccnc4c4ncccc4c3nc1c1cccnc12.c1cnc2c(c1)ccc1cccnc12.c1cnc2c(c1)ccc1cccnc12.c1cnc2c(c1)ccc1cccnc12.c1cnc2c(c1)ccc1cccnc12
Kb ([2]; apparent, diastereomeric mixture): 1.77 × 10^7 M^–1

[Ru+2].[Ru+2].c1cnc2c(c1)c1nc3c4cccnc4c4ncccc4c3nc1c1cccnc12.c1cnc2c(c1)ccc1cccnc12.c1cnc2c(c1)ccc1cccnc12.c1cnc2c(c1)ccc1cccnc12.c1cnc2c(c1)ccc1cccnc12 [ΔΔ-2]
binding ([3]; binds mainly at lateral loop end): yes
Kb [2, 4]: 2.95 × 10^5 M^–1

[Ru+2].[Ru+2].c1cnc2c(c1)c1nc3c4cccnc4c4ncccc4c3nc1c1cccnc12.c1cnc2c(c1)ccc1cccnc12.c1cnc2c(c1)ccc1cccnc12.c1cnc2c(c1)ccc1cccnc12.c1cnc2c(c1)ccc1cccnc12 [ΛΛ-2]
binding ([3]; binds at both ends): yes
Kb [2, 4]: 1.16 × 10^7 M^–1
